Source: ChEMBL document CHEMBL5050831, “Substituted quinoxaline derivatives as inhibitors of pfkfb” (2019)

Assay: Metabolic stability in human liver microsomes at […] in presence of NADPH assessed as intrinsic clearance
Format: ADME, Microsome
Details: read-out: CLH

microsomal CLint: 85 µL/min/mg
Compound: CC(C)[C@H](Nc1cc(-c2ccc3ccn(C)c3c2)c2nccnc2c1)c1cccnc1
